# From patent US20210353593A1 (Chinook Therapeutics, Inc., priority 2019, published 2021)
# Positions of bridges follow the written chain, without caps; N, C: chain ends. No end group written: not given here.
# Tested on: IL-6 production in primary human mesangial cells
# Assay: ET-1 induced IL-6 production (ELISA) in primary human renal mesangial cells
# Type: cell-based
substance,measurement,setting,value
"ET-1: endothelin 1, used to stimulate primary human mesangial cells (CSCSSLMDKECVYFCHLDIIW; disulfide 1-15, 3-11; ends not checked; UniProt P05305 53-73, looked up)",increase in IL-6 production by primary human mesangial cells,exposed to ET-1 over 48 hours,~6 fold
same,increase in IL-6 production by primary human mesangial cells,exposed to ET-1 over 72 hours,~2.2 fold
